Patent US7973061B2, “Anaplastic lymphoma kinase modulators and methods of use” (Exelixis, Inc., priority 2004, dated 2011)

Each compound was assayed against T1, ALK (baculovirus expressed human ALK kinase domain F1098-K1410) (Homo sapiens, UniProt Q9UM73) (assay: biochemical). Details: 1 μM ATP, 4 μM poly-AEKY, 12 nM ALK, 2 hours at ambient temperature; read-out: ALK IC50.
T1 construct: human ALK kinase domain F1098-K1410; made in house
T1 sequence (Q9UM73 1098-1410): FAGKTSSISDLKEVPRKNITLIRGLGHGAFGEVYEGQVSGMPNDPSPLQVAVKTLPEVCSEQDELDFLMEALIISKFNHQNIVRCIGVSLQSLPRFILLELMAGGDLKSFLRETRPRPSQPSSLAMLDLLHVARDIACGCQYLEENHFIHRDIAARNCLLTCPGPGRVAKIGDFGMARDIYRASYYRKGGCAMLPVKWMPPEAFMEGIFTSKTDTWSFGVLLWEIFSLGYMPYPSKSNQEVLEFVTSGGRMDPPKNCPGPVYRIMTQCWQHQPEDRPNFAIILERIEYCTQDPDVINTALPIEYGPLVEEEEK
Outline: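 Baculovirus-expressed human ALK kinase domain (F1098-K1410) was run in a luciferase-coupled chemiluminescent format, with ATP near its KM. After 2 h at ambient temperature, remaining ATP was read by luciferase-luciferin luminescence. IC50 came from 10-point dose-response curves fitted to a four-parameter equation with Hill slope.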
An IC50 of 50 to 500 nM was found for `O=C(COc1ccc(OC(F)(F)F)cc1)NCc1nc(C(=O)NCCc2cccc(C(F)(F)F)c2)co1` [Entry 181, 2-({[({4-[(trifluoromethyl)oxy]phenyl}oxy)acetyl]amino}methyl)-N-{2-[3-(trifluoromethyl)phenyl]ethyl}-1,3-oxazole-4-carboxamide] in this work.
An IC50 of 500 to 2000 nM was found for `COc1ccccc1CNC(=O)c1csc(CNC(=O)COc2ccc(Cl)cc2)n1` [Entry 263, 2-[({[(4-chlorophenyl)oxy]acetyl}amino)methyl]-N-{[2-(methyloxy)phenyl]methyl}-1,3-thiazole-4-carboxamide] in this work.
An IC50 of 50 to 500 nM was found for `O=C(COc1ccc(OC(F)(F)F)cc1)NCc1nc(C(=O)NCCc2ccccn2)cs1` [Entry 77, N-(2-pyridin-2-ylethyl)-2-({[({4-[(trifluoromethyl)oxy]phenyl}oxy)acetyl]amino}methyl)-1,3-thiazole-4-carboxamide] in this work.
An IC50 of 50 to 500 nM was found for `O=C(COc1ccc(I)cc1)NCc1nc(C(=O)NCCc2ccccc2F)cs1` [Entry 59, N-[2-(2-fluorophenyl)ethyl]-2-[({[(4-iodophenyl)oxy]acetyl}amino)methyl]-1,3-thiazole-4-carboxamide] in this work.
An IC50 of 500 to 2000 nM was found for `O=C(COc1ccc(OC(F)(F)F)cc1)NCc1nc(C(=O)NCCc2ccccc2)co1` [Entry 242, N-(2-phenylethyl)-2-({[({4-[(trifluoromethyl)oxy]phenyl}oxy)acetyl]amino}methyl)-1,3-oxazole-4-carboxamide] in this work.
An IC50 of 50 to 500 nM was found for `O=C(COc1ccc(OC(F)(F)F)cc1)NCc1nc(C(=O)NCc2ccc(Cl)c(C(F)(F)F)c2)cs1` [Entry 73, N-{[4-chloro-3-(trifluoromethyl)phenyl]methyl}-2-({[({4-[(trifluoromethyl)oxy]phenyl}oxy)acetyl]amino}methyl)-1,3-thiazole-4-carboxamide] in this work.
An IC50 of 50 to 500 nM was found for `O=C(COc1ccc(OC(F)(F)F)cc1)NCc1nc(C(=O)NCc2ccc(F)c(Cl)c2)cs1` [Entry 191, N-[(3-chloro-4-fluorophenyl)methyl]-2-({[({4-[(trifluoromethyl)oxy]phenyl}oxy)acetyl]amino}methyl)-1,3-thiazole-4-carboxamide] in this work.
An IC50 of 50 to 500 nM was found for `O=C(COc1ccc(OC(F)(F)F)cc1)NCc1nc(C(=O)NCCc2ccc(F)cc2)co1` [Entry 201, N-[2-(4-fluorophenyl)ethyl]-2-({[({4-[(trifluoromethyl)oxy]phenyl}oxy)acetyl]amino}methyl)-1,3-oxazole-4-carboxamide] in this work.
An IC50 of 500 to 2000 nM was found for `O=C(COc1ccc(OC(F)(F)F)cc1)NCc1nc(C(=O)NCc2ccncc2)cs1` [Entry 285, N-(pyridin-4-ylmethyl)-2-({[({4-[(trifluoromethyl)oxy]phenyl}oxy)acetyl]amino}methyl)-1,3-thiazole-4-carboxamide] in this work.
An IC50 of 50 to 500 nM was found for `Cc1ccccc1CNC(=O)c1csc(CNC(=O)COc2ccc(OC(F)(F)F)cc2)n1` [Entry 98, N-[(2-methylphenyl)methyl]-2-({[({4-[(trifluoromethyl)oxy]phenyl}oxy)acetyl]amino}methyl)-1,3-thiazole-4-carboxamide] in this work.
An IC50 of 50 to 500 nM was found for `COc1cc(CCNC(=O)c2coc(CNC(=O)COc3ccc(OC(F)(F)F)cc3)n2)cc(OC)c1` [Entry 207, N-{2-[3,5-bis(methyloxy)phenyl]ethyl}-2-({[({4-[(trifluoromethyl)oxy]phenyl}oxy)acetyl]amino}methyl)-1,3-oxazole-4-carboxamide] in this work.
An IC50 of 50 to 500 nM was found for `O=C(COc1ccc(OC(F)(F)F)cc1)NCc1nc(C(=O)N[C@@H]2CCCc3ccccc32)cs1` [Entry 165, N-[(1R)-1,2,3,4-tetrahydronaphthalen-1-yl]-2-({[({4-[(trifluoromethyl)oxy]phenyl}oxy)acetyl]amino}methyl)-1,3-thiazole-4-carboxamide] in this work.
An IC50 of less than 50 nM was found for `O=C(COc1ccc(OC(F)(F)F)cc1)NCc1nc(C(=O)NCCc2ccccc2F)cs1` [Entry 5, N-[2-(2-fluorophenyl)ethyl]-2-({[({4-[(trifluoromethyl)oxy]phenyl}oxy)acetyl]amino}methyl)-1,3-thiazole-4-carboxamide] in this work.
An IC50 of 500 to 2000 nM was found for `O=C(COc1ccc(OC(F)(F)F)cc1)NCc1nc(C(=O)NCc2ccccc2)co1` [Entry 297, N-(phenylmethyl)-2-({[({4-[(trifluoromethyl)oxy]phenyl}oxy)acetyl]amino}methyl)-1,3-oxazole-4-carboxamide] in this work.
An IC50 of 500 to 2000 nM was found for `O=C(COc1ccc(OC(F)(F)F)cc1)NCc1nc(C(=O)NCc2ccc(Cl)cc2)cs1` [Entry 227, N-[(4-chlorophenyl)methyl]-2-({[({4-[(trifluoromethyl)oxy]phenyl}oxy)acetyl]amino}methyl)-1,3-thiazole-4-carboxamide] in this work.
An IC50 of 50 to 500 nM was found for `CCCOCCCNC(=O)c1csc(CNC(=O)COc2ccc(OC(F)(F)F)cc2)n1` [Entry 74, N-[3-(propyloxy)propyl]-2-({[({4-[(trifluoromethyl)oxy]phenyl}oxy)acetyl]amino}methyl)-1,3-thiazole-4-carboxamide] in this work.
An IC50 greater than 2000 nM was found for `COc1cccc(CNC(=O)c2csc(CN)n2)c1OC` [Entry 303, 2-(aminomethyl)-N-{[2,3-bis(methyloxy)phenyl]methyl}-1,3-thiazole-4-carboxamide] in this work.
An IC50 of 500 to 2000 nM was found for `C[C@H](NC(=O)c1coc(CNC(=O)COc2ccc(OC(F)(F)F)cc2)n1)C1CCCCC1` [Entry 264, N-[(1S)-1-cyclohexylethyl]-2-({[({4-[(trifluoromethyl)oxy]phenyl}oxy)acetyl]amino}methyl)-1,3-oxazole-4-carboxamide] in this work.
An IC50 of 50 to 500 nM was found for `C[C@@H]1[C@H]2C[C@@H](C[C@H]1NC(=O)c1csc(CNC(=O)COc3ccc(OC(F)(F)F)cc3)n1)C2(C)C` [Entry 88, 2-({[({4-[(trifluoromethyl)oxy]phenyl}oxy)acetyl]amino}methyl)-N-[(1R,2R,3R,5S)-2,6,6-trimethylbicyclo[3.1.1]hept-3-yl]-1,3-thiazole-4-carboxamide] in this work.
An IC50 of 50 to 500 nM was found for `O=C(COc1ccc(OC(F)(F)F)cc1)NCc1nc(C(=O)NCCc2cccc(F)c2)co1` [Entry 148, N-[2-(3-fluorophenyl)ethyl]-2-({[({4-[(trifluoromethyl)oxy]phenyl}oxy)acetyl]amino}methyl)-1,3-oxazole-4-carboxamide] in this work.
An IC50 of 50 to 500 nM was found for `CCc1ccc(NC(=O)NCc2nc(C(=O)NCc3cccc(OC)c3OC)cs2)cc1` [Entry 134, N-{[2,3-bis(methyloxy)phenyl]methyl}-2-[({[(4-ethylphenyl)amino]carbonyl}amino)methyl]-1,3-thiazole-4-carboxamide] in this work.
An IC50 of 50 to 500 nM was found for `O=C(COc1ccc(OC(F)(F)F)cc1)NCc1nc(C(=O)NCCc2ccccc2)cs1` [Entry 145, N-(2-phenylethyl)-2-({[({4-[(trifluoromethyl)oxy]phenyl}oxy)acetyl]amino}methyl)-1,3-thiazole-4-carboxamide] in this work.
An IC50 of 50 to 500 nM was found for `O=C(NCCc1ccccc1F)c1csc(CNC(=O)c2cccnc2Oc2ccc(Cl)cc2)n1` [Entry 129, 2-[(4-chlorophenyl)oxy]-N-{[4-({[2-(2-fluorophenyl)ethyl]amino}carbonyl)-1,3-thiazol-2-yl]methyl}pyridine-3-carboxamide] in this work.
An IC50 of 50 to 500 nM was found for `Cc1ccc(F)cc1CNC(=O)c1csc(CNC(=O)COc2ccc(OC(F)(F)F)cc2)n1` [Entry 47, N-[(5-fluoro-2-methylphenyl)methyl]-2-({[({4-[(trifluoromethyl)oxy]phenyl}oxy)acetyl]amino}methyl)-1,3-thiazole-4-carboxamide] in this work.
